Numbering of substitutions follows the chain as printed. Numbers in names are those of the source. *1 amine or outer side, *2 acyl side, *3 side chain or, on linkers, in order; H or OH if unused. Where a SMILES comes first, the peptide text is derived from it. The star is where a group is joined. pNA = O=[N+]([O-])c1ccc(N*)cc1; Suc = O=C(CCC(=O)[*:2])[*:1]
Key:
Assay in all cases: Kinetic parameters by release of p-nitroaniline from suc-AAPFpNA (absorbance at 410 nm, Michaelis-Menten fit)
[1] = biological target: T1, Bacillus lentus subtilisin variant N74D/S101A/V102W (control variant of WO1995010591), SEQ ID NO: 3 (Lederbergia lenta, UniProt P29600, N74D/S101A/V102W); assay type: biochemical
T1 construct: made in house; host or cells: protease deficient Bacillus subtilis 168
T1 sequence (P29600 1-269 N74D/S101A/V102W): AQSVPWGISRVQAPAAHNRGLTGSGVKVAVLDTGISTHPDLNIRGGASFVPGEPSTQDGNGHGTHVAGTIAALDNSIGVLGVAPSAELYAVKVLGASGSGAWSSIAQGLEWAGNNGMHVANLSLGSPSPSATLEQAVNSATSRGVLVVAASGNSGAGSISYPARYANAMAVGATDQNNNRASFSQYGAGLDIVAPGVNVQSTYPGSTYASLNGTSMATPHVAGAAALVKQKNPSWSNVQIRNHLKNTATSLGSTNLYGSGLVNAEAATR
Description: (§1) Three selected mutants as well as the wild-type and one mutant of the patent application WO1995010591 A1 data set were cloned in a Bacillus vector behind a constitutive APRE promotor and expressed in a protease deficient Bacillus subtilis 168 strain. The transformed strains were grown for 24 hours at 37°C in shake flasks. The subtilisin variants were purified by Ion exchange chromatography followed by […] with a 0-200 mM salt gradient. The activity of the protease variants was determined by the release of the chromophore para-nitroanilide from succinyl-alanine-alanine-proline-phenylalanine-para-nitroanilide (suc-AAPFpNA). The release of the pNA causes an increase in the absorbance at 410 nm, the temporal progression of which is used as a measure of the activity of the enzymes.
(§2) The kinetic parameters kcat and Km of the variants were measured using basically the method described in Bonneau, P. R., Graycar, T. P., Estell, D. A., & Jones, J. B. (1991). Alteration of the specificity of subtilisin BPN'by site-directed mutagenesis in its S1 and S1'binding sites. Journal of the American Chemical Society, 113(3), 1026-1030. A small aliquot of purified subtilisin variant was added to a 96 microtiterplate well containing succinyl-L-Ala-L-Ala-L-Pro-L-Phe-p-nitroanilide (SEQ ID NO: 1) dissolved in 0.1M Tris-HCL, pH 8.6. The reaction progress was measured spectrophotometrically at 25°C by monitoring the absorbance of p-nitroaniline at 410nm. The corresponding experimental values were fit to the Michaelis-Menten equation by a regression algorithm. The kcat/KM ratio was obtained by dividing the resulting values. […] Table 2: kinetic parameters kcat and Km of the variants at pH 8.6
(§3) The kinetic parameters kcat and Km of the variants were also measured using basically the method described in Bonneau, P. R., Graycar, T. P., Estell, D. A., & Jones, J. B. (1991). Alteration of the specificity of subtilisin BPN'by site-directed mutagenesis in its S1 and S1'binding sites. Journal of the American Chemical Society, 113(3), 1026-1030. A small aliquot of purified subtilisin variant was added to a microtiterplate containing suc-AAPFpNA (SEQ ID NO:1) dissolved in 0.1M glycine pH10. The reaction progress was measured spectrophotometrically by monitoring the absorbance of p-nitroaniline at 410nm. The corresponding experimental values were fit to the Michaelis-Menten equation by a regression algorithm. The kcat/Km ratio was obtained by dividing the resulting values. […] Kcat kcat/km are indicated as % compared to the wild-type (100%). Table 3: kinetic parameters kcat and Km of the variants at pH 10

[2] = biological target: T2, Bacillus lentus subtilisin variant N74D/S97D/S126G/P204I/T254P/S259N, SEQ ID NO: 6 (Lederbergia lenta, UniProt P29600, N74D/P204I/S126G/S259N/S97D/T254P); assay type: biochemical
T2 construct: made in house; host or cells: protease deficient Bacillus subtilis 168
T2 sequence (P29600 1-269 N74D/S97D/S126G/P204I/T254P/S259N): T1 sequence (P29600 1-269 N74D/S101A/V102W) with S97D, A101S, W102V, S126G, P204I, T254P, S259N
Description: as §1, §2, §3

[3] = biological target: T3, Bacillus lentus subtilisin variant N74D/S99G/V102W/S126G/D191E/N198G/N212S/T254P, SEQ ID NO: 4 (Lederbergia lenta, UniProt P29600, D191E/N198G/N212S/N74D/S126G/S99G/T254P/V102W); assay type: biochemical
T3 construct: made in house; host or cells: protease deficient Bacillus subtilis 168
T3 sequence (P29600 1-269 N74D/S99G/V102W/S126G/D191E/N198G/N212S/T254P): T1 sequence (P29600 1-269 N74D/S101A/V102W) with S99G, A101S, S126G, D191E, N198G, N212S, T254P
Description: as §1, §2, §3

[4] = biological target: T4, Bacillus lentus subtilisin variant N74D/S99G/V102W/S126G/N198A/N212S/T254P, SEQ ID NO: 5 (Lederbergia lenta, UniProt P29600, N198A/N212S/N74D/S126G/S99G/T254P/V102W); assay type: biochemical
T4 construct: made in house; host or cells: protease deficient Bacillus subtilis 168
T4 sequence (P29600 1-269 N74D/S99G/V102W/S126G/N198A/N212S/T254P): T1 sequence (P29600 1-269 N74D/S101A/V102W) with S99G, A101S, S126G, N198A, N212S, T254P
Description: as §1, §2, §3

[5] = biological target: T5, wild-type subtilisin of Bacillus lentus (GG36), WT, SEQ ID NO: 2 (Lederbergia lenta, UniProt P29600); assay type: biochemical
T5 construct: made in house; host or cells: protease deficient Bacillus subtilis 168
T5 sequence (P29600 1-269): T1 sequence (P29600 1-269 N74D/S101A/V102W) with D74N, A101S, W102V
Description: as §1, §2, §3

[6] = substrate: C[C@H](NC(=O)CCC(=O)O)C(=O)N[C@@H](C)C(=O)N1CCC[C@H]1C(=O)N[C@@H](Cc1ccccc1)C(=O)Nc1ccc([N+](=O)[O-])cc1; assay type: biochemical, Bacillus lentus
Description: as §1, §2, §3

[7] = other: 0.1M Tris-HCL, pH 8.6, 25°C, pH 8.6, 25.0 °C
[8] = other: 0.1M glycine pH10, pH 10.0

Molecule: C[C@H](NC(=O)CCC(=O)O)C(=O)N[C@@H](C)C(=O)N1CCC[C@H]1C(=O)N[C@@H](Cc1ccccc1)C(=O)Nc1ccc([N+](=O)[O-])cc1 [succinyl-L-Ala-L-Ala-L-Pro-L-Phe-p-nitroanilide] (Suc-AAPF-pNA)
- kcat pH 8.6 ([1]; 0.1M Tris-HCL, pH 8.6, 25°C): 638 % of wild-type
- kcat/Km pH 8.6 ([1]; 0.1M Tris-HCL, pH 8.6, 25°C): 1392 % of wild-type
- kcat pH 10 ([1]; 0.1M glycine pH10): 554 %half-life of wild-type
- kcat/Km pH10 ([1]; 0.1M glycine pH10): 2263 % wild-type
- kcat pH 8.6 ([2]; 0.1M Tris-HCL, pH 8.6, 25°C): 55 % of wild-type
- kcat/Km pH 8.6 ([2]; 0.1M Tris-HCL, pH 8.6, 25°C): 51 % of wild-type
- kcat pH 10 ([2]; 0.1M glycine pH10): 37 %half-life of wild-type
- kcat/Km pH10 ([2]; 0.1M glycine pH10): 97 % wild-type
- kcat pH 8.6 ([3]; 0.1M Tris-HCL, pH 8.6, 25°C): 579 % of wild-type
- kcat/Km pH 8.6 ([3]; 0.1M Tris-HCL, pH 8.6, 25°C): 3326 % of wild-type
- kcat pH 10 ([3]; 0.1M glycine pH10): 719 %half-life of wild-type
- kcat/Km pH10 ([3]; 0.1M glycine pH10): 5100 % wild-type
- kcat pH 8.6 ([4]; 0.1M Tris-HCL, pH 8.6, 25°C): 503 % of wild-type
- kcat/Km pH 8.6 ([4]; 0.1M Tris-HCL, pH 8.6, 25°C): 6362 % of wild-type
- kcat pH 10 ([4]; 0.1M glycine pH10): 723 %half-life of wild-type
- kcat/Km pH10 ([4]; 0.1M glycine pH10): 10827 % wild-type
- kcat pH 8.6 ([5]; 0.1M Tris-HCL, pH 8.6, 25°C): 100 % of wild-type
- kcat/Km pH 8.6 ([5]; 0.1M Tris-HCL, pH 8.6, 25°C): 100 % of wild-type
- kcat pH 10 ([5]; 0.1M glycine pH10): 100 %half-life of wild-type
- kcat/Km pH10 ([5]; 0.1M glycine pH10): 100 % wild-type

B1: wild-type subtilisin of Bacillus lentus (GG36), WT, SEQ ID NO: 2 (Lederbergia lenta) (protein)
chain: T1 sequence (P29600 1-269 N74D/S101A/V102W) with D74N, A101S, W102V
notes: made in house; host or cells: protease deficient Bacillus subtilis 168
- Km [6, 7]: 630 µM
- Km [6, 8]: 1340 µM

B2: Bacillus lentus subtilisin variant N74D/S97D/S126G/P204I/T254P/S259N, SEQ ID NO: 6 (Lederbergia lenta; N74D/P204I/S126G/S259N/S97D/T254P) (protein)
chain: T1 sequence (P29600 1-269 N74D/S101A/V102W) with S97D, A101S, W102V, S126G, P204I, T254P, S259N
notes: as for B1
- Km [6, 7]: 660 µM
- Km [6, 8]: 520 µM

B3: Bacillus lentus subtilisin variant N74D/S99G/V102W/S126G/D191E/N198G/N212S/T254P, SEQ ID NO: 4 (Lederbergia lenta; … (protein)
chain: T1 sequence (P29600 1-269 N74D/S101A/V102W) with S99G, A101S, S126G, D191E, N198G, N212S, T254P
notes: as for B1
- Km [6, 7]: 110 µM
- Km [6, 8]: 190 µM

B4: Bacillus lentus subtilisin variant N74D/S99G/V102W/S126G/N198A/N212S/T254P, SEQ ID NO: 5 (Lederbergia lenta; N198A/N212S/N74D/S126G/S99G/T254P/V102W) (protein)
chain: T1 sequence (P29600 1-269 N74D/S101A/V102W) with S99G, A101S, S126G, N198A, N212S, T254P
notes: as for B1
- Km [6, 7]: 50 µM
- Km [6, 8]: 90 µM

B5: Bacillus lentus subtilisin variant N74D/S101A/V102W (control variant of WO1995010591), SEQ ID NO: 3 (Lederbergia lenta; N74D/S101A/V102W) (protein)
chain: T1 sequence (P29600 1-269 N74D/S101A/V102W)
notes: as for B1
- Km [6, 7]: 290 µM
- Km [6, 8]: 330 µM

— patent EP4446411A1, “VARIANT SUBTILISIN PROTEASES” (PEACCEL, priority 2023, dated 2024)
